Assay results from patent publication US12479974B2, “Composition and method for microbial control for use with polymers” (MICROBAN PRODUCTS COMPANY, priority 2022, dated 2025).
≈ marks a conversion by molar mass, not a printed value.

Columns and labels:
[1] = system: Staphylococcus aureus; test: Minimum inhibitory concentration (MIC); type: cell-based; conditions: against Staphylococcus aureus
[2] = system: Escherichia coli; test: Minimum inhibitory concentration (MIC); type: cell-based; conditions: against Escherichia coli
[3] = system: Escherichia coli (gram-negative bacteria); test: Antimicrobial efficacy of polymer samples, ISO22196 test method
[4] = system: Staphylococcus aureus (gram-positive bacteria); test: as above; conditions: GBA alone at more than 4500 ppm in TPU, Table 3 (S. aureus)

Row | SMILES | MIC [1] [µg/mL] | MIC [2] [µg/mL] | efficacy against E. coli ([3]; 2500 ppm GBA in TPU) | log reduction ([3]; 4500 ppm GBA alone in TPU, E. coli) | log reduction (consistent antimicrobial efficacy) ([3]; 5250 ppm level in TPU, E. coli) | antimicrobial efficacy [4]
1 | OCCCc1ccccc1 [3-phenylpropanol] | 4000 (≈ 29.4 mM) | 3000 to 4000 (≈ 22 to 29.4 mM) | – | – | – | –
2 | O=C(O)c1ccccc1 [GBA, benzoic acid] | – | – | no efficacy | less than 1 | > 1 | did not exhibit antimicrobial efficacy
